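Cultured in 96-well plates, cells were exposed to test compound for 48 hours across five concentrations. At the GI50, growth is halved.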 Activity calls are given as the source filed them. Cut-off read from the data, not from the text of the source: active = GI50 up to about 1.1 µM and inactive = higher.

The record followed here is ChEMBL document CHEMBL1201862, “PubChem BioAssay data set” (2004).

Among the test systems are HCT-15; UACC-257; CAKI-1; Malme-3M; EKVX; OVCAR-4; SF-539; HL-60; SF-268; OVCAR-3; ACHN; MDA-N; NCI-H23; MDA-MB-231; SR; TK-10; NCI/ADR-RES; HCC 2998; M14; MDA-MB-435.
Common to all, as to test: NCI anticancer screen, dose series, 48 h

As for `O=C(O)c1ccc(Cc2ccccc2C(=O)O)cc1`, the GI50 in the assay on HCT-15 was over 100 µM; in the assay on UACC-257, > 100 µM (inactive); in the assay on CAKI-1 it was > 100 µM (inactive); with Malme-3M, > 100 µM (inactive); in the assay with EKVX, > 100 µM (inactive); with OVCAR-4, > 100 µM (inactive). Besides, the GI50 in the assay with SF-539, in the assay with HL-60, in the assay with SF-268, with OVCAR-3, with ACHN and in the assay with MDA-N was > 100 µM (inactive) throughout. In addition, the GI50 in the assay on NCI-H23, in the assay on MDA-MB-231, in the assay with SR, in the assay on TK-10, in the assay with NCI/ADR-RES and with HCC 2998 was > 100 µM (inactive) throughout. For the same compound, the GI50 in the assay on M14 and with MDA-MB-435 was > 100 µM (inactive) in each case.
As to `CCNC(=O)c1c(O)nc2ccccc2c1O`, the GI50 in the assay on HCT-15 is 29 µM; in the assay on UACC-257, > 100 µM (inactive); with CAKI-1 it was 55.5 µM (inactive); in the assay with Malme-3M, > 100 µM (inactive); with EKVX, 32.3 µM (inactive); in the assay with OVCAR-4, 70.6 µM (inactive). Also, the GI50 in the assay with SF-539 was > 100 µM (inactive); in the assay with HL-60 it was 35.6 µM (inactive); in the assay on SF-268 it was 63.4 µM (inactive); in the assay on OVCAR-3, 61.9 µM (inactive); in the assay on ACHN, 40.5 µM (inactive); in the assay on MDA-N, 84.9 µM (inactive). Besides, the GI50 with NCI-H23 is > 100 µM (inactive); in the assay on MDA-MB-231, 67.5 µM (inactive); with SR, 25.5 µM (inactive); in the assay on TK-10 it was 50.6 µM (inactive); in the assay with NCI/ADR-RES it was > 100 µM (inactive); in the assay on HCC 2998, > 100 µM (inactive). In addition, in the assay with MDA-MB-435, the GI50 was 59.7 µM (inactive).
With `O=C(/C=C/c1ccc(OCc2cccc(Cl)c2)cc1)NO`, the GI50 is 5.05 µM in the assay with HCT-15; 38 µM (inactive) in the assay with UACC-257; 13.5 µM (inactive) with CAKI-1; 23.9 µM (inactive) in the assay with EKVX; 13.5 µM (inactive) in the assay on OVCAR-4; 17.2 µM (inactive) in the assay with SF-539. For the same compound, the GI50 with HL-60 is 11.1 µM (inactive); with SF-268, 24.3 µM (inactive); with OVCAR-3 it was 19.2 µM (inactive); in the assay with ACHN, 11.3 µM (inactive); with MDA-N, 18.6 µM (inactive); in the assay on NCI-H23, 11.2 µM (inactive). In addition, the GI50 in the assay on MDA-MB-231 is 19.7 µM (inactive); with SR, 3.55 µM (inactive); in the assay on TK-10 it was 20.9 µM (inactive); in the assay on NCI/ADR-RES, 5.78 µM (inactive); in the assay with HCC 2998 it was 14.2 µM (inactive); with M14, 21 µM (inactive). In the assay on MDA-MB-435, the GI50 is 18.5 µM (inactive).
Consider `C=C(Br)C(C)(Br)CCC(Br)C(C)(C)Cl` (stereo unspecified), for which the GI50 is 13 µM in the assay on HCT-15; 19.1 µM (inactive) in the assay on UACC-257; 20.1 µM (inactive) with Malme-3M; 22.8 µM (inactive) in the assay on EKVX; 18.9 µM (inactive) in the assay on OVCAR-4; 16.8 µM (inactive) in the assay on SF-539. In addition, the GI50 with HL-60 is 2.81 µM (inactive); in the assay with SF-268 it was 17.9 µM (inactive); in the assay on OVCAR-3 it was 18.6 µM (inactive); in the assay on ACHN, 19.1 µM (inactive); in the assay with MDA-N it was 19.2 µM (inactive); in the assay with NCI-H23, 16.3 µM (inactive). Besides, the GI50 with MDA-MB-231 is 17.8 µM (inactive); with SR it was 3.5 µM (inactive); in the assay with TK-10 it was 18.2 µM (inactive); in the assay with NCI/ADR-RES it was 23.7 µM (inactive); with HCC 2998 it was 17.4 µM (inactive); in the assay on M14, 17.3 µM (inactive). Moreover, the GI50 in the assay with MDA-MB-435 was 19.4 µM (inactive).
Regarding `N#CCCN(CCCN(CCCN(C(=O)Nc1ccccc1)c1ccccc1)C(=O)Nc1ccccc1)C(=O)Nc1ccccc1`, the GI50 with HCT-15 is over 100 µM; in the assay on UACC-257, > 8.75 µM (inactive); in the assay with CAKI-1 it was > 8.75 µM (inactive); with Malme-3M it was > 8.75 µM (inactive); in the assay on EKVX it was > 8.75 µM (inactive); with OVCAR-4, > 100 µM (inactive). Moreover, the GI50 in the assay on SF-539, in the assay with HL-60, with SF-268, with OVCAR-3, in the assay on ACHN and in the assay on MDA-N was > 8.75 µM (inactive) each time. Besides, the GI50 was > 8.75 µM (inactive) with MDA-MB-231; 0.998 µM (active) in the assay on SR; > 8.75 µM (inactive) with TK-10; > 8.75 µM (inactive) in the assay on NCI/ADR-RES; > 100 µM (inactive) in the assay on HCC 2998; > 8.75 µM (inactive) in the assay with M14. Besides, in the assay on MDA-MB-435, the GI50 is > 8.75 µM (inactive).
As for `CCC(Nc1ncnc2nc[nH]c12)C(=O)O` (stereo unspecified), the GI50 in the assay with HCT-15 was over 100 µM; in the assay on UACC-257, > 100 µM (inactive); in the assay with CAKI-1 it was > 100 µM (inactive); in the assay on Malme-3M it was > 100 µM (inactive); in the assay with EKVX, > 100 µM (inactive); with OVCAR-4, > 100 µM (inactive). For the same compound, the GI50 in the assay on HL-60, in the assay with SF-268, in the assay on OVCAR-3, in the assay with ACHN, in the assay on MDA-N and with NCI-H23 was > 100 µM (inactive) in each case. The GI50 in the assay with MDA-MB-231, with SR, in the assay with TK-10, in the assay on NCI/ADR-RES, in the assay on HCC 2998 and with M14 was > 100 µM (inactive) in each case. Further, in the assay with MDA-MB-435, the GI50 was > 100 µM (inactive).
For `Cc1ccc(/C=C/c2n[nH]c(N/N=C/c3ccc4c(c3)OCO4)nc2=O)cc1`, the GI50 in the assay on HCT-15 was 44.9 µM; in the assay on UACC-257, 40.1 µM (inactive); in the assay on CAKI-1, 33.3 µM (inactive); with Malme-3M it was 3.28 µM (inactive); with EKVX, 35.3 µM (inactive); in the assay on OVCAR-4, 19.3 µM (inactive). For the same compound, the GI50 was 21 µM (inactive) with SF-539; 17.2 µM (inactive) in the assay on SF-268; 19.6 µM (inactive) with OVCAR-3; 25.2 µM (inactive) with ACHN; 25.3 µM (inactive) in the assay with MDA-N; 15.4 µM (inactive) in the assay with NCI-H23. The GI50 in the assay on MDA-MB-231 was 15.5 µM (inactive); in the assay with SR, 11.2 µM (inactive); with TK-10, 25.9 µM (inactive); in the assay with NCI/ADR-RES it was 9.23 µM (inactive); in the assay with HCC 2998, 22.3 µM (inactive); with M14, 36.6 µM (inactive). The GI50 with MDA-MB-435 is 33.4 µM (inactive).
With `Cc1ccc([N+](=O)[O-])cc1S(=O)(=O)Nc1ccc(C2=NN(S(=O)(=O)c3cc([N+](=O)[O-])ccc3C)C(c3cccs3)C2)cc1` (stereo unspecified), the GI50 is 33.2 µM in the assay with HCT-15; 31.5 µM (inactive) in the assay with UACC-257; 44.1 µM (inactive) in the assay on CAKI-1; 47.9 µM (inactive) in the assay with Malme-3M; 29 µM (inactive) in the assay with EKVX; 37.4 µM (inactive) in the assay with OVCAR-4. Further, the GI50 was 32.9 µM (inactive) with HL-60; 28.1 µM (inactive) in the assay on SF-268; 19.6 µM (inactive) with OVCAR-3; 32.4 µM (inactive) in the assay with ACHN; 33.7 µM (inactive) in the assay on MDA-N; 21.8 µM (inactive) in the assay with NCI-H23. The GI50 in the assay with MDA-MB-231 is 24.9 µM (inactive); in the assay on SR, 24.1 µM (inactive); in the assay on TK-10, 38.6 µM (inactive); in the assay on NCI/ADR-RES it was 31.6 µM (inactive); in the assay with HCC 2998, 22.9 µM (inactive); in the assay on M14 it was 36 µM (inactive). Besides, the GI50 in the assay on MDA-MB-435 was 50 µM (inactive).
Consider `CCOC(OCC)N1C(=O)C2(C(OCC)OCC)CC3C(OC(=O)N3N)c3cccc1c32` (stereo unspecified), for which the GI50 is over 100 µM in the assay with HCT-15; > 100 µM (inactive) with UACC-257; > 100 µM (inactive) with CAKI-1; > 100 µM (inactive) in the assay with Malme-3M; > 100 µM (inactive) in the assay on EKVX; > 100 µM (inactive) in the assay on OVCAR-4. Also, the GI50 in the assay on SF-539, in the assay on HL-60, in the assay with SF-268, in the assay on OVCAR-3, with ACHN and in the assay on MDA-N was > 100 µM (inactive) each time. The GI50 in the assay with NCI-H23, with MDA-MB-231, in the assay on SR, in the assay with TK-10, in the assay with NCI/ADR-RES and in the assay on HCC 2998 was > 100 µM (inactive) throughout. For the same compound, the GI50 with MDA-MB-435 was > 100 µM (inactive).
Regarding `O=C(/C=C/C=C/c1ccccc1)CCc1ccccc1`, the GI50 in the assay with HCT-15 is 94.4 µM; in the assay with UACC-257 it was > 100 µM (inactive); in the assay with CAKI-1, > 100 µM (inactive); with Malme-3M it was > 100 µM (inactive); with EKVX it was > 100 µM (inactive); with OVCAR-4 it was 70.3 µM (inactive). Moreover, the GI50 with SF-539 was > 100 µM (inactive); in the assay on HL-60, 23.4 µM (inactive); in the assay with SF-268, 85.1 µM (inactive); in the assay with OVCAR-3, > 100 µM (inactive); in the assay with MDA-N, > 100 µM (inactive); with NCI-H23, 63.7 µM (inactive). Further, the GI50 in the assay on MDA-MB-231 was > 100 µM (inactive); in the assay on SR, 20.3 µM (inactive); in the assay with TK-10 it was > 100 µM (inactive); in the assay with NCI/ADR-RES, 68.5 µM (inactive); in the assay on HCC 2998, > 100 µM (inactive); with M14 it was > 100 µM (inactive). Also, the GI50 in the assay on MDA-MB-435 is 72.6 µM (inactive).
